Results reported in patent publication US7268131B2, “Substituted [1,4]oxazino[2,3-g]indazoles for the treatment of glaucoma” (Alcon, Inc., priority 2003, dated 2007).
Structures can show the parent of a compound that is named as a salt.

What was measured:
5-HT2A [1] = molecular target: T1, 5-HT2A (Rattus norvegicus, UniProt P14842); assay: 5-HT2 functional Assay: [Ca2+]i Mobilization (FLIPR); assay type: cell-based; set-up: endogenous in cells; host or cells: A7r5 rat vascular smooth muscle cells; conditions: for EC50: [Ca2+]i mobilization, A7r5 rat vascular smooth muscle cells, FLIPR; for Emax: percentage of a maximum 5-HT-induced response, A7r5 cells
T1 sequence (P14842 whole entry): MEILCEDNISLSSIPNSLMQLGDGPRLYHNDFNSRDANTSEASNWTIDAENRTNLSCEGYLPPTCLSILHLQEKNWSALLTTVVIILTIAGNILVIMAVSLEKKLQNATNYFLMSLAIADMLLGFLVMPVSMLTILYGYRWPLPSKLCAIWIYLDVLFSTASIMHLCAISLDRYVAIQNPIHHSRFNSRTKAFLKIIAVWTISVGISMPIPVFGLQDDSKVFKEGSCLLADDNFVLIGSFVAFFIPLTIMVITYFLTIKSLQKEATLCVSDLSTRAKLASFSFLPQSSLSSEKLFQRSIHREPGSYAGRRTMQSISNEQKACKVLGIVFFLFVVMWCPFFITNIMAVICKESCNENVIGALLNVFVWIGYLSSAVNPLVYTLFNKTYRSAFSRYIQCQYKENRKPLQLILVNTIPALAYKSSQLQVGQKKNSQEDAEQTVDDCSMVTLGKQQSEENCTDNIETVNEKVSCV
Procedure: 5-HT2 functional Assay: [Ca^2+]i Mobilization
The receptor-mediated mobilization on intracellular calcium ([Ca^2+]i) was studied using the Fluorescence Imaging Plate Reader (FLIPR) instrument. Rat vascular smooth muscle cells, A7r5, were grown in a normal media of DMEM/10% FBS and 10 μg/mL gentamycin. Confluent cell monolayers were trypsinized, pelleted, and re-suspended in normal media. Cells were seeded in a 50 μL volume at a density of 20,000 cells/well in a black wall, 96-well tissue culture plate and grown for 2 days.
On the day of the experiment, one vial of FLIPR Calcium Assay Kit dye was re-suspended in 50 mL of a FLIPR buffer consisting of Hank's Balanced Salt Solution (HBSS), 20 mM HEPES, and 2.5 mM probenecid, pH 7.4. Cells were loaded with the calcium-sensitive dye by addition of an equal volume (50 μL) to each well of the 96-well plate and incubated with dye for 1 h at 23° C.
Typically, test compounds were stored at 25 μM in 50% DMSO/50% Ethanol solvent. Compounds were diluted 1:50 in 20% DMSO/20% Ethanol. For “hit” screening, compounds were further diluted 1:10 in FLIPR buffer and tested at a final concentration of 10 μM. For dose-response experiments, compounds were diluted 1:50 in FLIPR buffer and serially diluted 1:10 to give a 5- or 8-point dose-response curve.
The compound plate and cell plate were placed in the FLIPR instrument. At the beginning of an experimental run, a signal test was performed to check the basal fluorescence signal from the dye-loaded cells and the uniformity of the signal across the plate. The basal fluorescence was adjusted between 8000-12000 counts by modifying the exposure time, the camera F-stop, or the laser power. Instrument settings for a typical assay were the following: laser power 0.3-0.6 W, camera F-stop F/2, and exposure time 0.4 sec. An aliquot (25 μL) of the test compound was added to the existing 100 μL dye-loaded cells at a dispensing speed of 50 μL/sec. Fluorescence data were collected in real-time at 1.0 sec intervals for the first 60 secs and at 6.0 sec intervals for an additional 120 secs. Responses were measured as peak fluorescence intensity minus basal and where appropriate were expressed as a percentage of a maximum 5-HT-induced response. When the compounds were tested as antagonists against 10 μM 5-HT, they were incubated with the cells for 15 minutes prior to the addition of 5-HT.

5-HT2A [2] = molecular target: T1, 5-HT2A; assay: 5-HT2 Receptor Binding Assay ([125I]DOI competition); conditions: competition for [125I]DOI binding, rat or human cerebral cortex homogenates
Procedure: 5-HT2 Receptor Binding Assay
Aliquots of post mortem rat or human cerebral cortex homogenates (400 μL) dispersed in 50 mM Tris HCl buffer (pH 7.4) are incubated with [^125I]DOI (80 pM final) in the absence or presence of methiothepin (10 μM final) to define total and non-specific binding, respectively, in a total volume of 0.5 mL. The assay mixture is incubated for 1 hour at 23° C. in polypropylene tubes and the assays terminated by rapid vacuum filtration over Whatman GF/B glass fiber filters previously soaked in 0.3% polyethyleneimine using ice-cold buffer. Test compounds (at different concentrations) are substituted for methiothepin. Filter-bound radioactivity is determined by scintillation spectrometry on a beta counter. The data are analyzed using a non-linear, iterative curve-fitting computer program [Trends Pharmacol. Sci., 16, 413 (1995)] to determine the compound affinity parameter. The concentration of the compound needed to inhibit the [^125I]DOI binding by 50% of the maximum is termed the IC50 or Ki value.

| Structure (SMILES) | melting point | EC50 (5-HT2A [1]) | Emax (5-HT2A [1]) | IC50 (5-HT2A [2]) |
| --- | --- | --- | --- | --- |
| C[C@H](N)Cn1ncc2ccc3c(c21)N(C)CCO3.O=C(O)/C=C/C(=O)O [Example 1, (S)-2-(8,9-dihydro-9-methyl-7H-[1,4]oxazino[2,3-g]indazol-1-yl)-1-methylethylamine fumarate] | 185 to 187 °C | 20 nM | 82% | 1 nM |
| C[C@H](N)Cn1ncc2ccc3c(c21)N(C)C(=O)CO3 [Example 3, 1-((S)-2-Aminopropyl)-1,9-dihydro-9-methyl-7H-[1,4]oxazino[2,3-g]indazol-8-one hydrochloride] |  | 550 nM | 41% | 7.6 nM |
| C[C@H](N)Cn1ncc2ccc3c(c21)NC(=O)CO3.Cl [Example 2, 1-((S)-2-Aminopropyl)-1,9-dihydro-7H-[1,4]oxazino[2,3-g]indazol-8-one hydrochloride] | 293 to 295 °C | 195 nM | 60% | 3.5 nM |
